In brackets after ≈: the same amount, converted by molar mass. Like-named read-outs stand apart in the source and are kept apart here.
What was measured:
E. coli [1] = test: Susceptibility of E. coli from urinary tract infections, 18 EU countries 2020 (STEWARD); assay type: cell-based
Description: The study assessed the prevalence of resistance and evaluated the activity of oral tebipenem (TBP) and comparators against EC from urinary tract infections.
Results were interpreted using EUCAST criteria. […] ESBL phenotypes were determined by CLSI criteria and sequenced to identify CTX-M-15 genotype and clonal complex ST131.

Enterobacterales (ENT) = test: Broth microdilution against US UTI pathogens 2019-2020; assay type: cell-based
Description: (§1) This study assessed the in vitro activity of tebipenem and comparator agents against Enterobacterales (ENT) responsible for UTIs in the US during 2019-2020. A total of 3,576 ENT recovered from urine samples during the 2019-2020 STEWARD Surveillance Program were included in the study. Isolates were collected from medical centers in all 9 US Census Regions and were centrally tested for susceptibility by reference broth microdilution method. MIC interpretation was performed based on CLSI criteria.

K. pneumoniae = test: as above; assay type: cell-based; settings: K. pneumoniae (511)
Description: as §1

P. mirabilis = test: as above; assay type: cell-based; settings: P. mirabilis (235), cefuroxime: oral breakpoint
Description: as §1

E. coli [2] = test: as above; assay type: cell-based; settings: E. coli (2,339); cefuroxime: oral breakpoint
Description: as §1

[3] = tested on: bacteremia secondary to cUTI/AP; test: Efficacy in patients with cUTI or acute pyelonephritis and associated bacteremia; assay type: in vivo, human
Text: The objective of this analysis was to evaluate the efficacy of TBP-PI-HBr in the subset of patients with associated bacteremia from a study of patients with either cUTI or acute pyelonephritis.

[4] = tested on: other methicillin-susceptible coagulase-negative staphylococci (MSCONS); test: Broth microdilution against Gram-positive clinical isolates; assay type: cell-based; settings: 29 isolates
Description: The purpose of this study was to investigate the in vitro activity of tebipenem and comparator agents, including ertapenem and meropenem, against a recent collection of Gram-positive isolates associated with clinical infections. The susceptibility of 580 Gram-positive organisms were tested, including: […] Bacterial species were identified by JMI Laboratories using standard microbiology methods and matrix-assisted laser desorption ionization-time of flight mass spectrometry (Bruker Daltonics, Bremen, Germany). […] Isolates were tested in a central laboratory (JMI Laboratories) for antimicrobial susceptibility using the CLSI […] (2018) reference broth microdilution method. JMI Laboratories produced frozen-form 96-well panels and used cation-adjusted Mueller-Hinton broth (CA-MHB) as the testing medium. […] Quality control organisms include Escherichia coli ATCC 25922, Escherichia coli ATCC 35218, Enterococcus faecalis ATCC 29212, Pseudomonas aeruginosa ATCC 27853, and Staphylococcus aureus ATCC 29213 were tested concurrently with clinical isolates.

E. coli [5] = test: Broth microdilution MIC against characterized subsets of UTI E. coli (2018-2020); assay type: cell-based; settings: for MIC50 / MIC90: Escherichia coli; for MIC50: read-out: MIC50; for MIC90: read-out: MIC90
Text: Isolates were collected from medical centers in all 9 US Census Regions and tested by broth microdilution. MIC interpretation was based on CLSI. Isolates that met MIC criteria were subjected to genome sequencing, followed by screening of extended-spectrum b-lactamase (ESBL) genes and epidemiology typing (MLST).

[6] = tested on: Enterobacterales overproducing AmpC; test: Broth microdilution susceptibility of isolates overexpressing AmpC; assay type: cell-based
Description: Frozen-form broth microdilution panels were manufactured by JMI Laboratories and contained cation-adjusted Mueller-Hinton broth. Quality assurance was performed by sterility checks, colony counts, and testing CLSI recommended quality control reference strains.

[7] = tested on: AmpC production in P. aeruginosa; test: AmpC induction (nitrocefin hydrolysis after drug exposure); assay type: cell-based
Description: (§2) AmpC induction was determined as follows. Baseline MIC values were determined by broth microdilution method, as described above, for 9 Gram-negative isolates with basal expression of ampC. These isolates were cultured overnight on blood agar plates. A standardized inoculum made from fresh overnight plate cultures was added to flasks containing 50 mL of Luria-Bertani (LB) broth and incubated by shaking at 37° C. to OD600 of 0.3. […] These cultures were incubated under shaking conditions. A 40 mL aliquot of bacterial cultures was sampled at time 0 and 2 hours after drug exposures. Each sample aliquot was harvested by centrifugation and the supernatant was discarded.
(§3) Protein crude extract preparations were made in 200 μL of BugBusterR (Novagen, Darmstadt, Germany) per manufacturer instructions and cell debris was removed by centrifugation. Protein concentrations were determined in each crude extract by standard methodologies.
(§4) AmpC induction was measured by the intensity of β-lactamase hydrolytic activity against 0.1 mM nitrocefin in 0.1 M phosphate buffer at pH 7.0 using spectrophotometry at 482 nm (Δ absorbance/minute/mg of protein). The drug exposure conditions that caused a >4-fold increase in hydrolysis activity compared to the baseline were subjected to postinduction experiments. Briefly, cells were grown under the same conditions as before and tested for susceptibility by broth microdilution.

[8] = tested on: AmpC production in Enterobacterales; test: as above; assay type: cell-based; settings: tebipenem/imipenem except for C. koseri and S. marcescens
Description: as §2, §3, §4

C[C@@H](O)[C@H]1C(=O)N2C(C(=O)O)=C(S[C@@H]3CN[C@H](C(=O)Nc4cccc(C(=O)O)c4)C3)[C@H](C)[C@H]12 [Ertapenem, ertapenem]
MIC90 (E. coli [1]; Escherichia coli, all E. coli (764) from UTIs): 0.03 µg/mL (≈ 0.0631 µM) | Susceptibility rate (E. coli [1]; all E. coli, EUCAST criteria): 99.9% | MIC50 (Enterobacterales (ENT)): ≤ 8 µg/mL | MIC90 (Enterobacterales (ENT); All (3,567)): 30 µg/mL (≈ 63.1 µM) | % susceptible; CLSI (Enterobacterales (ENT); All (3,567), cefuroxime: oral breakpoint): (98.5) % | MIC90 (Enterobacterales (ENT); against ENT, EC, and KPN): 0.03 µg/mL (≈ 0.0631 µM) | % susceptible; CLSI (K. pneumoniae; cefuroxime: oral breakpoint): (96.3) % | MIC50 (K. pneumoniae; Klebsiella pneumoniae, read-out: MIC50): ≤ 8 µg/mL | % susceptible; CLSI (P. mirabilis): (100.0) % | % susceptible; CLSI (P. mirabilis; listed as ERT): 100.0% | % susceptible; CLSI (E. coli [2]): (99.6) % | Clinical cure rate ([3]; EOT): 100% | Clinical cure rate ([3]; TOC): 94.3% | Overall response rate ([3]; end-of-treatment (EOT)): 96.2% | Clinical cure rate ([3]; late-follow-up (LFU) visit): approximately 89% | Overall response rate ([3]; test-of-cure (TOC)): 66.0% | MIC90 [4]: 1 µg/mL (≈ 2.1 µM) | % susceptible by CLSI M100 criteria (E. coli [5]; CMYb (33)): 90.6% | % susceptible by CLSI M100 criteria (E. coli [5]; CTX-M a): 98.9% | % susceptible by CLSI M100 criteria (E. coli [5]; DHA(7)): 85.7% | % susceptible by CLSI M100 criteria (E. coli [5]; ESBL (360)): 97.4% | MIC50 (E. coli [5]; CMYb (33)): 0.06 µg/mL (≈ 0.126 µM) | MIC50 (E. coli [5]; CTX-M a): 0.03 µg/mL (≈ 0.0631 µM) | MIC90 (E. coli [5]; CTX-M a): 0.12 µg/mL (≈ 0.252 µM) | MIC50 (E. coli [5]; DHA(7)): 0.06 µg/mL (≈ 0.126 µM) | MIC50 (E. coli [5]; ESBL (360)): 0.03 µg/mL (≈ 0.0631 µM) | MIC90 (E. coli [5]; ESBL (360)): 0.12 µg/mL (≈ 0.252 µM) | MIC50 (E. coli [5]; Non-ESBL (2035)): ≤ 0.008 µg/mL | MIC90 (E. coli [5]; Non-ESBL (2035)): 0.015 µg/mL (≈ 0.0315 µM) | MIC50 (E. coli [5]; Non-ST131 (203)): 0.015 µg/mL (≈ 0.0315 µM) | MIC90 (E. coli [5]; ST131 (222)): 0.06 µg/mL (≈ 0.126 µM) | % susceptible by CLSI M100 criteria (E. coli [5]; Non-ESBL (2035)): 100% | % susceptible by CLSI M100 criteria (E. coli [5]; Non-ST131 (203)): 97.0% | % susceptible by CLSI M100 criteria (E. coli [5]; ST131 (222)): 99.1% | % susceptible (E. coli [5]; against the various subsets): ≥ 97.0% | susceptibility rates (E. coli [5]; isolates carrying plasmid AmpC): 85.7-90.6% | MIC50 [6]: 0.12 µg/mL (≈ 0.252 µM) | MIC90 [6]: 2 µg/mL (≈ 4.21 µM) | CLSI %1 ([6]; Enterobacterales (36)): 8.3% | CLSI % R ([6]; Enterobacterales (36)): 11.1% | CLSI % S ([6]; Enterobacterales (36)): 80.6% | MIC50 ([6]; Enterobacterales (36)): 0.12 μ/ml | MIC90 ([6]; Enterobacterales (36)): 2 μ/ml | effect of exposure on production of AmpC [7]: not observed | effect of exposure on production of AmpC [8]: did not seem to affect production of AmpC

From patent US12048691B2 (SPERO THERAPEUTICS, INC., priority 2020, dated 2024)
